Data as given in patent US20140094424A1, “MICROBICIDAL COMPOSITIONS AND METHODS OF PRODUCTION USE THEREOF” (priority 2011, published 2014).

How the values were obtained:
[1] = system: Penicillium notatum-KMO (R); test: MBC (minimum bactericidal concentration) test in Wash NEXT reagent; assay type: cell-based; conditions: for total kill at % preservative (MBC): at 14 days
Description: (§1) The stock organisms were thawed and subbed prior to beginning the MBC test. Molds were subbed to SDA plates one week before, and the bacteria were subbed to TAT agar plates 24 hours prior to the start of the test. All plates were incubated at 32 degrees C.
(§2) For the molds, each organism was inoculated into 40 ml sterile saline in a centrifuge tube to create a density of MacFarland #5. Two serial dilutions of 1:100 were then made, resulting in 10^−2 and 10^−4 concentrations. Each dilution was vortexed before it was sampled, and sterile Eppendorf pipette tips were used to make each transfer. The 10^−4 dilution was spiral plated to yield the initial inoculum concentration.
(§3) MBC trays were set up with the prepared test reagent. Using a Matrix pipettor, 100 μl aliquots of reagent were distributed into the wells, diluting the amount of preservative from 100% to 10% increments, using unpreserved reagent as the diluent. In one row, 100% non-preserved reagent acted as a positive control and served as a benchmark for a full mat of growth. In well #12H, 100 μl unpreserved reagent was pipetted, and this well was not inoculated with organisms, as it served as the negative control. Once all of the trays were prepared, the prepared bacteria/mold suspensions were poured into the MBC inoculating trays. These were placed onto the reagent trays, and 0.01 ml inoculum was introduced into the 100 μl of reagent in each well.
(§4) This was done by dipping a sterile cotton swab into each well, and absorbing all of the liquid in the well. The swab was rolled onto a TAT agar plate ensuring that the entire swab touches the agar. Plates ware incubated at 32 degrees C. for 48 hours to 7 days, depending on the organism. Observations for growth were performed by a scoring matrix using + for a full mat, +/− for some growth, a numerical value for an actual colony count, and—for no growth.
(§5) Below are tables that contain the data obtained in Example 1. The MBC test is scored by (+) indicating a full grown mat of organisms, equivalent to the organisms in the unpreserved reagent. (+/−) indicates there is some kill evident disturbing that mat or bringing the quantities down to an almost countable level. An actual number is the actual number of colonies growing at that concentration of preservative. (−) indicates no growth found. The MBC trays were stored at room temperature for the entire test.
(§6) The materials and methods and analysis of the MBC test were the same as in Example 1.

[2] = system: Aspergillus glaucus- DMO (Q); test: as above; assay type: cell-based
Description: as §1, §2, §3, §4, §5, §6

With [N-]=[N+]=[N-] [Sodium Azide, sodium azide] the growth ([1]; 10%, 8 hour) was “+”, the growth ([1]; 10%, 24 hour) was “+” and the growth ([1]; 10%, 48 hour) was “+/−”. The “growth (number of organisms counted)” value ([1]; 10%, 72 hour) was 24, the “growth (number of organisms counted)” value ([1]; 10%, 7 day) was 20 and the “growth (number of organisms counted)” value ([1]; 10%, 14 day) was 14. The growth ([1]; 20%, 8 hour) was “+”, the growth ([1]; 20%, 24 hour) was “+” and the growth ([1]; 20%, 48 hour) was “+/−”. For the same compound, the “growth (number of organisms counted)” value ([1]; 20%, 72 hour) was 22, the “growth (number of organisms counted)” value ([1]; 20%, 7 day) was 19 and the “growth (number of organisms counted)” value ([1]; 20%, 14 day) was 11. The growth ([1]; 30%, 8 hour) was “+”, the growth ([1]; 30%, 24 hour) was “+” and the growth ([1]; 30%, 48 hour) was “+/−”. For the same compound, the “growth (number of organisms counted)” value ([1]; 30%, 72 hour) was 22, the “growth (number of organisms counted)” value ([1]; 30%, 7 day) was 19 and the “growth (number of organisms counted)” value ([1]; 30%, 14 day) was 8. For the same compound, the growth ([1]; 40%, 8 hour) was “+”, the growth ([1]; 40%, 24 hour) was “+” and the growth ([1]; 40%, 48 hour) was “+/−”. For the same compound, the “growth (number of organisms counted)” value ([1]; 40%, 72 hour) was 18, the “growth (number of organisms counted)” value ([1]; 40%, 7 day) was 15 and the “growth (number of organisms counted)” value ([1]; 40%, 14 day) was 6. For the same compound, the growth ([1]; 50%, 8 hour) was “+”, the growth ([1]; 50%, 24 hour) was “+” and the growth ([1]; 50%, 48 hour) was “+/−”. The “growth (number of organisms counted)” value ([1]; 50%, 72 hour) was 15, the “growth (number of organisms counted)” value ([1]; 50%, 7 day) was 12 and the growth ([1]; 50%, 14 day) was “−”. The growth ([1]; 60%, 8 hour) was “+”, the growth ([1]; 60%, 24 hour) was “+” and the growth ([1]; 60%, 48 hour) was “+/−”. The “growth (number of organisms counted)” value ([1]; 60%, 72 hour) was 13, the “growth (number of organisms counted)” value ([1]; 60%, 7 day) was 10 and the growth ([1]; 60%, 14 day) was “−”. The growth ([1]; 70%, 8 hour) was “+”, the growth ([1]; 70%, 24 hour) was “+” and the growth ([1]; 70%, 48 hour) was “+/−”. The “growth (number of organisms counted)” value ([1]; 70%, 72 hour) was 11, the “growth (number of organisms counted)” value ([1]; 70%, 7 day) was 9 and the growth ([1]; 70%, 14 day) was “−”. The growth ([1]; 80%, 8 hour) was “+”, the growth ([1]; 80%, 24 hour) was “+” and the growth ([1]; 80%, 48 hour) was “+/−”. For the same compound, the “growth (number of organisms counted)” value ([1]; 80%, 72 hour) was 9, the “growth (number of organisms counted)” value ([1]; 80%, 7 day) was 6 and the growth ([1]; 80%, 14 day) was “−”. For the same compound, the growth ([1]; 90%, 8 hour) was “+”, the growth ([1]; 90%, 24 hour) was “+” and the growth ([1]; 90%, 48 hour) was “+/−”. The “growth (number of organisms counted)” value ([1]; 90%, 72 hour) was 7, the “growth (number of organisms counted)” value ([1]; 90%, 7 day) was 4 and the growth ([1]; 90%, 14 day) was “−”. The growth ([1]; 100%, 8 hour) was “+”, the growth ([1]; 100%, 24 hour) was “+” and the growth ([1]; 100%, 48 hour) was “+/−”. The “growth (number of organisms counted)” value ([1]; 100%, 72 hour) was 6, the “growth (number of organisms counted)” value ([1]; 100%, 7 day) was 3 and the growth ([1]; 100%, 14 day) was “−”. For the same compound, the “total kill at % preservative (MBC)” value [1] was “had total kill at 50% preservative at 14”, the “total kill at % preservative (MBC)” value ([1]; listed as Na Azide) was “Total kill @ 50%” and the “MBC test growth score” value ([2]; 10% preservative, 8 hour) was “+”. The “MBC test growth score” value ([2]; 10% preservative, 24 hour) was “+”, the “MBC test growth score” value ([2]; 10% preservative, 48 hour) was “+” and the “MBC test growth score” value ([2]; 10% preservative, 72 hour) was “+”. For the same compound, the “MBC test growth score” value ([2]; 10% preservative, 7 day) was “+”, the “MBC test growth score” value ([2]; 10% preservative, 14 day) was “+/−” and the “MBC test growth score” value ([2]; 20% preservative, 8 hour) was “+”. For the same compound, the “MBC test growth score” value ([2]; 20% preservative, 24 hour) was “+”, the “MBC test growth score” value ([2]; 20% preservative, 48 hour) was “+” and the “MBC test growth score” value ([2]; 20% preservative, 72 hour) was “+”. For the same compound, the “MBC test growth score” value ([2]; 20% preservative, 7 day) was “+”, the “MBC test growth score” value ([2]; 20% preservative, 14 day) was “+/−” and the “MBC test growth score” value ([2]; 30% preservative, 8 hour) was “+”. The “MBC test growth score” value ([2]; 30% preservative, 24 hour) was “+”, the “MBC test growth score” value ([2]; 30% preservative, 48 hour) was “+” and the “MBC test growth score” value ([2]; 30% preservative, 72 hour) was “+”. For the same compound, the “MBC test growth score” value ([2]; 30% preservative, 7 day) was “+”, the “MBC test growth score” value ([2]; 30% preservative, 14 day) was “+/−” and the “MBC test growth score” value ([2]; 40% preservative, 8 hour) was “+”. For the same compound, the “MBC test growth score” value ([2]; 40% preservative, 24 hour) was “+”, the “MBC test growth score” value ([2]; 40% preservative, 48 hour) was “+” and the “MBC test growth score” value ([2]; 40% preservative, 72 hour) was “+”. The “MBC test growth score” value ([2]; 40% preservative, 7 day) was “+”, the “MBC test growth score” value ([2]; 40% preservative, 14 day) was “+/−” and the “MBC test growth score” value ([2]; 50% preservative, 8 hour) was “+”. For the same compound, the “MBC test growth score” value ([2]; 50% preservative, 24 hour) was “+”, the “MBC test growth score” value ([2]; 50% preservative, 48 hour) was “+” and the “MBC test growth score” value ([2]; 50% preservative, 72 hour) was “+”. The “MBC test growth score” value ([2]; 50% preservative, 7 day) was “+”, the “MBC test growth score” value ([2]; 50% preservative, 14 day) was “+/−” and the “MBC test growth score” value ([2]; 60% preservative, 8 hour) was “+”. The “MBC test growth score” value ([2]; 60% preservative, 24 hour) was “+”, the “MBC test growth score” value ([2]; 60% preservative, 48 hour) was “+” and the “MBC test growth score” value ([2]; 60% preservative, 72 hour) was “+”. The “MBC test growth score” value ([2]; 60% preservative, 7 day) was “+”, the “MBC test growth score” value ([2]; 60% preservative, 14 day) was “+/−” and the “MBC test growth score” value ([2]; 70% preservative, 8 hour) was “+”. The “MBC test growth score” value ([2]; 70% preservative, 24 hour) was “+”, the “MBC test growth score” value ([2]; 70% preservative, 48 hour) was “+” and the “MBC test growth score” value ([2]; 70% preservative, 72 hour) was “+”. The “MBC test growth score” value ([2]; 70% preservative, 7 day) was “+”, the “MBC test growth score” value ([2]; 70% preservative, 14 day) was “+/−” and the “MBC test growth score” value ([2]; 80% preservative, 8 hour) was “+”. The “MBC test growth score” value ([2]; 80% preservative, 24 hour) was “+”, the “MBC test growth score” value ([2]; 80% preservative, 48 hour) was “+” and the “MBC test growth score” value ([2]; 80% preservative, 72 hour) was “+”. The “MBC test growth score” value ([2]; 80% preservative, 7 day) was “+”, the “MBC test growth score” value ([2]; 80% preservative, 14 day) was “+/−” and the “MBC test growth score” value ([2]; 90% preservative, 8 hour) was “+”. The “MBC test growth score” value ([2]; 90% preservative, 24 hour) was “+”, the “MBC test growth score” value ([2]; 90% preservative, 48 hour) was “+” and the “MBC test growth score” value ([2]; 90% preservative, 72 hour) was “+”. For the same compound, the “MBC test growth score” value ([2]; 90% preservative, 7 day) was “+”, the “MBC test growth score” value ([2]; 90% preservative, 14 day) was “+/−” and the “MBC test growth score” value ([2]; 100% preservative, 8 hour) was “+”. The “MBC test growth score” value ([2]; 100% preservative, 24 hour) was “+”, the “MBC test growth score” value ([2]; 100% preservative, 48 hour) was “+” and the “MBC test growth score” value ([2]; 100% preservative, 72 hour) was “+”. For the same compound, the “MBC test growth score” value ([2]; 100% preservative, 7 day) was “+”, the “MBC test growth score” value ([2]; 100% preservative, 14 day) was “+/−” and the “total kill at % preservative (MBC)” value ([2]; at 14 days, listed as Na Azide) was “No kill @ 100%”.
